From patent US9562033B2, “Inhibitors of viral replication, their process of preparation and their therapeutical uses” (LABORATOIRE BIODIM, priority 2012, dated 2017)

Tested on: NL4-3 strain of HIV-1
Experiment: HIV-1 replication inhibition: cyto-protection of MT4 cells infected with NL4-3 virus (CellTiter-Glo viability assay)
Type: cell-based
Conditions: Human immunodeficiency virus 1, NL43, 120 h, concentration leading to 50% of cyto-protection, 5 days incubation
Protocol: The antiviral activity, particularly against HIV, of compounds according to the invention is evaluated by the protocol described below.
Preparation of Virus Stock of the NL4-3 Strain of HIV-1
The virus was prepared as described in Lopez et al (Lopez et al, Proc Natl Acad Sci USA., 2006, 103(40):14947-52, by transfecting 2×10^6 293 T cells (CRL-1573, ATCC) with following modifications: 6 μg of NL4-3 proviral DNA molecular clone were mixed with Fugene 6 transfection reagent from Roche, and used according to manufacturer's instructions. Forty eight hours later, transfected cell supernatants were harvested, filtered through 0.45-μm-pore-size filters, quantified for HIV-1 p24 antigen by using a Innotest HIV antigen mAb assay (Ingen) according to manufacturer's instructions, and used in infection experiments.
Preparation of Compounds:
Serial dilutions of compounds to be tested were prepared in complete RPMI medium from 10 mM DMSO stock solutions, and distributed in a volume of 20 µl in 96 well Falcon 353072 Microtest™ tissue culture plate, in order to get 0.5% DMSO final concentration in each well, after the addition of infected cells. Control wells contained also 0.5% DMSO final concentration but no compound.
MT4 cells (from the NIH AIDS Research and Reference Reagent Program) in RPMI complete medium were counted (10×10^6 cells per well in Falcon 353047 Multiwell™ 24 well) and infected for 2 hours at 37°, at a multiplicity of infection (moi) of 0.0001-0.00001. Cells were then centrifuged 3 min at 3000 rpm, and washed two times in 1 ml PBS to remove viruses that have not entered in cells. Infected cells were resuspended in complete RPMI at 1.25×10^6 cells/ml, and 80 µl of infected cells were distributed in each well containing compounds to be tested or control wells. The plates were then incubated at 37° for 5 days.
Assay Used to Measure the Inhibition of HIV Replication by the Compounds
(according to Gregg S. Jones et al., Antimicrobial Agents and Chemotherapy, 2009, 53 (3): 1194-1203).
After 5 days of incubation, […] of CellTiter-Glo reagent (Promega Biosciences, Inc., Madison Wis., USA) were added to each well. Cell lysis was carried out at room temperature during 10 min, 150 μl of lysates were transferred in Packard Optiplate 96 well, and luminescence was read on a Fluoroskan (Thermo Scientific).

| Compound | EC50 [nM] |
| --- | --- |
| Cc1sc(C2=CCCCC2)c(C2=CCC(C)(C)CC2)c1C(OC(C)(C)C)C(=O)O (centres unmarked) [Example 57, 2-(tert-butoxy)-2-[4-(4,4-dimethylcyclohex-1-en-1-yl)-5-(cyclohexen-1-yl)-2-methylthiophen-3-yl]acetic acid] | 1200 |
| Cc1sc(-c2ccsn2)c(C2=CCC(C)(C)CC2)c1C(OC(C)(C)C)C(=O)O (centres unmarked) [Example 58, 2-(tert-butoxy)-2-{2-methyl-4-[4,4-dimethylcyclohex-1-en-1-yl]-5-(isothiazol-3-yl)thiophen-3-yl}acetic acid] | 110 |
| Cc1sc(C2=CCCC2)c(C2=CCC(C)(C)CC2)c1C(OC(C)(C)C)C(=O)O (centres unmarked) [Example 59, 2-(tert-butoxy)-2-[4-(4,4-dimethylcyclohex-1-en-1-yl)-5-(cyclopenten-1-yl)-2-methylthiophen-3-yl]acetic acid] | 670 |
| CC(C)(C)OC(C(=O)O)c1c(C(F)(F)F)sc(-c2ccccc2)c1-c1ccc2c(c1)CCCO2 (centres unmarked) [Example 60, 2-(tert-butoxy)-2-[4-(3,4-dihydro-2H-1-benzopyran-6-yl)-5-phenyl-2-(trifluoromethyl)thiophen-3-yl]acetic acid] | 500 |
| Cc1sc(-c2ccccc2)c(-c2ccc3c4c(ccnc24)CCO3)c1C(OC(C)(C)C)C(=O)O (centres unmarked) [Example 61, 2-(tert-butoxy)-2-[2-methyl-4-(2,3-dihydropyrano[4,3,2-de]quinolin-7-yl)-5-phenyl-thiophen-3-yl]acetic acid] | 210 |
| Cc1sc(-c2nsc(Cl)c2C)c(C2=CCC(C)(C)CC2)c1C(OC(C)(C)C)C(=O)O (centres unmarked) [Example 62, 2-(tert-butoxy)-2-{2-methyl-4-[4,4-dimethylcyclohex-1-en-1-yl]-5-(5-chloro-4-methyl-isothiazol-3-yl)thiophen-3-yl}acetic acid] | 820 |
| Cc1sc(-c2ccns2)c(C2=CCC(C)(C)CC2)c1C(OC(C)(C)C)C(=O)O (centres unmarked) [Example 63, 2-(tert-butoxy)-2-{2-methyl-4-[4,4-dimethylcyclohex-1-en-1-yl]-5-(isothiazol-5-yl)thiophen-3-yl}acetic acid] | 950 |
| CCOC(C(=O)O)c1c(C)sc(-c2ccncc2)c1C1=CCC(C)(C)CC1 (centres unmarked) [Example 64, 2-[4-(4,4-dimethylcyclohex-1-en-1-yl)-2-methyl-5-(pyridin-4-yl)thiophen-3-yl]-2-ethoxyacetic acid] | 710 |
| CCCc1sc(C)c(C(OC(C)(C)C)C(=O)O)c1-c1ccc2c(c1)CCCO2 (centres unmarked) [Example 65] | 1400 |
| Cc1sc(C2CC2)c(C2=CCC(C)(C)CC2)c1C(OC(C)(C)C)C(=O)O (centres unmarked) [Example 66, 2-(tert-butoxy)-2-{2-methyl-4-[4,4-dimethylcyclohex-1-en-1-yl]-5-(cyclopropyl)thiophen-3-yl}acetic acid] | 1100 |
| Cc1sc(-c2ccccc2)c(C2=CCC(C)(C)c3cccnc32)c1C(OC(C)(C)C)C(=O)O (centres unmarked) [Example 67, 2-(tert-butoxy)-2-[4-(5,5-dimethyl-5,6-dihydroquinolin-8-yl)-2-methyl-5-phenylthiophen-3-yl]acetic acid] | 2300 |
| Cc1sc(N2CCCC2=O)c(C2=CCC(C)(C)CC2)c1C(OC(C)(C)C)C(=O)O (centres unmarked) [Example 68, 2-(tert-butoxy)-2-{2-methyl-4-[4,4-dimethylcyclohex-1-en-1-yl]-5-(N-pyrrolidinone)thiophen-3-yl}acetic acid] | 1900 |
| CCCc1ccnc(-c2sc(C)c(C(OC(C)(C)C)C(=O)O)c2C2=CCC(C)(C)CC2)c1 (centres unmarked) [Example 71, 2-(tert-butoxy)-2-{2-methyl-4-[4,4-dimethylcyclohex-1-en-1-yl]-5-(4-(n-propyl)pyridin-2-yl)thiophen-3-yl}acetic acid] | 1100 |
| Cc1ccnc(-c2sc(C)c(C(OC(C)(C)C)C(=O)O)c2C2=CCC(C)(C)CC2)c1 (centres unmarked) [Example 72, 2-(tert-butoxy)-2-{2-methyl-4-[4,4-dimethylcyclohex-1-en-1-yl]-5-(4-methylpyridin-2-yl)thiophen-3-yl}acetic acid] | 2300 |
| Cc1cccc(-c2sc(C)c(C(OC(C)(C)C)C(=O)O)c2C2=CCC(C)(C)CC2)n1 (centres unmarked) [Example 73, 2-(tert-butoxy)-2-{2-methyl-4-[4,4-dimethylcyclohex-1-en-1-yl]-5-(6-methylpyridin-2-yl)thiophen-3-yl}acetic acid] | 6900 |
| Cc1sc(-c2ccncc2)c(-c2ccc3c4c(ccnc24)CCO3)c1C(OC(C)(C)C)C(=O)O (centres unmarked) [Example 74, 2-(tert-butoxy)-2-(2-methyl-4-(2,3-dihydropyrano[4,3,2-de]quinolin-7-yl)-5-(pyridin-4-yl)thiophen-3-yl)acetic acid] | 6800 |
| Cc1sc(-c2cc(F)c3c(c2)CCCO3)c(-c2cc(F)c3c(c2)CCCO3)c1C(OC(C)(C)C)C(=O)O (centres unmarked) [Example 75, 2-[4,5-bis(8-fluoro-3,4-dihydro-2H-1-benzopyran-6-yl)-2-methylthiophen-3-yl]-2-(tert-butoxy)acetic acid] | 2400 |
| Cc1sc(-c2ccc(C(=O)N(C)C)cc2)c(C2=CCC(C)(C)CC2)c1C(OC(C)(C)C)C(=O)O (centres unmarked) [Example 76] | 3300 |
| Cc1sc(-c2ccc(S(=O)(=O)N(C)C)cc2)c(C2=CCC(C)(C)CC2)c1C(OC(C)(C)C)C(=O)O (centres unmarked) [Example 77, 2-(tert-butoxy)-2-[4-(4,4-dimethylcyclohex-1-en-1-yl)-5-[4-(dimethylsulfamoyl)phenyl]-2-methylthiophen-3-yl]acetic acid] | 4400 |
| Cc1sc(C2=CCOCC2)c(-c2ccc3c(c2)CCCO3)c1C(OC(C)(C)C)C(=O)O (centres unmarked) [Example 78, 2-(tert-butoxy)-2-[4-(3,4-dihydro-2H-1-benzopyran-6-yl)-5-(3,6-dihydro-2H-pyran-4-yl)-2-methylthiophen-3-yl]acetic acid] | 4300 |
| COc1ccc(-c2sc(C)c(C(OC(C)(C)C)C(=O)O)c2-c2ccc3c(c2)CCCO3)cn1 (centres unmarked) [Example 79, 2-(tert-butoxy)-2-[4-(3,4-dihydro-2H-1-benzopyran-6-yl)-5-(6-methoxypyridin-3-yl)-2-methylthiophen-3-yl]acetic acid] | 1500 |
| Cc1sc(-c2cnn(Cc3ccccc3)c2)c(-c2ccc3c(c2)CCCO3)c1C(OC(C)(C)C)C(=O)O (centres unmarked) [Example 80, 2-[5-(1-benzyl-1H-pyrazol-4-yl)-4-(3,4-dihydro-2H-1-benzopyran-6-yl)-2-methylthiophen-3-yl]-2-(tert-butoxy)acetic acid] | 6200 |
| Cc1sc(-c2cccn2C)c(-c2ccc3c(c2)CCCO3)c1C(OC(C)(C)C)C(=O)O (centres unmarked) [Example 81, 2-(tert-butoxy)-2-[4-(3,4-dihydro-2H-1-benzopyran-6-yl)-2-methyl-5-(1-methyl-1H-pyrrol-2-yl)thiophen-3-yl]acetic acid] | 2500 |
| COC1(C)CC=C(c2c(-c3cnc4c(c3)CCCO4)sc(C)c2C(OC(C)(C)C)C(=O)O)CC1 (centres unmarked) [Example 82, 2-(tert-butoxy)-2-[4-(4-methoxy-4-methylcyclohex-1-en-1-yl)-2-methyl-5-{2H,3H,4H-pyrano[2,3-b]pyridin-6-yl}thiophen-3-yl]acetic acid] | 1000 |
| Cc1sc(-c2cc(C(F)(F)F)nn2C)c(-c2ccc3c(c2)CCCO3)c1C(OC(C)(C)C)C(=O)O (centres unmarked) [Example 83, 2-(tert-butoxy)-2-[4-(3,4-dihydro-2H-1-benzopyran-6-yl)-2-methyl-5-[1-methyl-3-(trifluoromethyl)-1H-pyrazol-5-yl]thiophen-3-yl]acetic acid] | 1700 |
| COc1cc(-c2sc(C)c(C(OC(C)(C)C)C(=O)O)c2-c2ccc3c(c2)CCCO3)ccn1 (centres unmarked) [Example 84, 2-(tert-butoxy)-2-[4-(3,4-dihydro-2H-1-benzopyran-6-yl)-5-(2-methoxy-pyridin-4-yl)-2-methylthiophen-3-yl]acetic acid] | 1500 |
| Cc1sc(-n2cccn2)c(-c2ccc3c(c2)CCCO3)c1C(OC(C)(C)C)C(=O)O (centres unmarked) [Example 85, 2-(tert-butoxy)-2-[4-(3,4-dihydro-2H-1-benzopyran-6-yl)-2-methyl-5-(1H-pyrazol-1-yl)thiophen-3-yl]acetic acid] | 1900 |
| Cc1sc(-c2ccsn2)c(-c2ccc3c(c2)CCCO3)c1C(OC(C)(C)C)C(=O)O (centres unmarked) [Example 86, 2-(tert-butoxy)-2-[4-(3,4-dihydro-2H-1-benzopyran-6-yl)-2-methyl-5-(1,2-thiazol-3-yl)thiophen-3-yl]acetic acid] | 270 |
| Cc1sc(-c2cnn(C)c2)c(-c2ccc3c(c2)CCCO3)c1C(OC(C)(C)C)C(=O)O (centres unmarked) [Example 88, 2-(tert-butoxy)-2-[4-(3,4-dihydro-2H-1-benzopyran-6-yl)-2-methyl-5-(1-methyl-1H-pyrazol-4-yl)thiophen-3-yl]acetic acid] | 1600 |
